According to patent publication US20120165309A1, “HETERO RING DERIVATIVE” (Astellas Pharma Inc., priority 2009, published 2012):

Legend:
human PI3Kδ enzyme = molecular target: T1, human PI3Kδ enzyme (Homo sapiens, UniProt O00329); assay: PI3Kδ enzyme inhibitory activity (PI3-Kinase HTRF Assay kit); type: biochemical; conditions: human PI3Kδ 10 ng/well, ATP 30 μM, PIP2 10 μM, room temperature 30 minutes
T1 construct: purchased Millipore Corporation 14-604
Procedure: 1. PI3Kδ Enzyme Inhibitory Activity
For the experiment, a PI3-Kinase HTRF Assay kit (Millipore Corporation, Catalogue No. 33-016) and a human PI3Kδ enzyme (Millipore Corporation, Catalogue No. 14-604) were used. The measurement method was in accordance with the appended instructions. The overview thereof is as follows.
PI3Kδ (10 ng/well), phosphatidylinositol-4,5-bisphosphate (10 μM), ATP (30 μM), and the test compound were mixed in a 384-well plate (total 20 μL), and incubated at room temperature for 30 minutes. EDTA and biotinylated phosphatidylinositol-3,4,5-triphosphate were added thereto to stop the reaction. Thereafter, a Europium labeled anti-GST antibody, a GST bond GRP1 PH domain, and streptavidin-APC were added thereto, followed by incubation overnight. An HTRF ratio was measured using an HTRF plate reader. The IC50 value of the compound was calculated, taking the inhibition rate without addition of the enzyme as 100% and the inhibition rate without addition of the test compound as 0%, by means of a logistic method.
(§1) In the Table, Ex represents Example Compound No. as described later, PI3Kδ represents the IC50 value (nM) of a PI3Kδ enzyme inhibitory activity, and PI3Kα represents the IC50 value (nM) of a PI3Kα enzyme inhibitory activity.

Human PI3Kα = molecular target: T2, Human PI3Kα (Homo sapiens, UniProt P42336); assay: PI3Kα enzyme inhibitory activity (Kinase-Glo Plus luminescence); type: biochemical; conditions: Human PI3Kα 12 ng/well, phosphatidylinositol 0.2 μg/well, 37° C. for 3 hours
T2 construct: purchased Millipore Corporation 14-602
Procedure: 2. PI3Kα Enzyme Inhibitory Activity
Human PI3Kα (12 ng/well, Millipore Corporation, Catalogue No. 14-602), phosphatidylinositol (0.2 μg/well), and the test compound were mixed in a 384-well plate in a reaction buffer (50 mM Hepes, 10 mM NaCl, 10 mM MgCl2, 2 mM EGTA, 2 mM DTT, pH 7.3) (total 10 μl), and incubated at 37° C. for 3 hours. After the reaction, 10 μL of a Kinase-Glo Plus reagent (Promega, Catalogue No. V3772) was added thereto, and a luminescence was measured with a luminometer. The IC50 value of the compound was calculated, taking the inhibition rate without addition of the enzyme as 100% and the inhibition rate without addition of the test compound as 0%, by a logistic method.
as §1

[1] = tested on: Spleen cells (B cell proliferation); assay: Rat B cell proliferation inhibition test (anti-rat IgM, [3H]thymidine); type: cell-based; conditions: anti-rat IgM 3 μg/well, 48 hours culture, [3H]thymidine uptake
Procedure: 4. Rat B Cell Proliferation Inhibition Test
Spleen cells (1.0×10^5 cells/well) prepared from male LEW/CrlCrlj rats (Charles River Laboratories, Japan, Inc.), mouse F(ab′)2 fragment anti-rat IgM (3 μg/well, SouthernBiotech Associates, Inc., Catalogue No. 3082-14) and the test compound dissolved in DMSO (final DMSO concentration 0.1%) were mixed in a 96-well plate using a 10% FCS-containing RPMI-1640 culture medium (total 200 μL). They were cultured in a CO2 incubator for 48 hours and [^3H]thymidine (925 GBq/mmol, Moravek Biochemicals, Inc., Catalogue No. MT6038) was added thereto at 0.037 MBq/well at 4 hours before completion of culture. Cells were harvested in a GF/C glass filter using a cell harvester, and a radioactivity on the filter was measured using a liquid scintillation counter. The IC50 value of the compound was calculated, taking the dpm (disintegration per minute) without addition of IgM as an inhibition rate of 100% and the dpm without addition of the test compound as an inhibition rate of 0%, by a logistic method.

T2 sequence (P42336 whole entry): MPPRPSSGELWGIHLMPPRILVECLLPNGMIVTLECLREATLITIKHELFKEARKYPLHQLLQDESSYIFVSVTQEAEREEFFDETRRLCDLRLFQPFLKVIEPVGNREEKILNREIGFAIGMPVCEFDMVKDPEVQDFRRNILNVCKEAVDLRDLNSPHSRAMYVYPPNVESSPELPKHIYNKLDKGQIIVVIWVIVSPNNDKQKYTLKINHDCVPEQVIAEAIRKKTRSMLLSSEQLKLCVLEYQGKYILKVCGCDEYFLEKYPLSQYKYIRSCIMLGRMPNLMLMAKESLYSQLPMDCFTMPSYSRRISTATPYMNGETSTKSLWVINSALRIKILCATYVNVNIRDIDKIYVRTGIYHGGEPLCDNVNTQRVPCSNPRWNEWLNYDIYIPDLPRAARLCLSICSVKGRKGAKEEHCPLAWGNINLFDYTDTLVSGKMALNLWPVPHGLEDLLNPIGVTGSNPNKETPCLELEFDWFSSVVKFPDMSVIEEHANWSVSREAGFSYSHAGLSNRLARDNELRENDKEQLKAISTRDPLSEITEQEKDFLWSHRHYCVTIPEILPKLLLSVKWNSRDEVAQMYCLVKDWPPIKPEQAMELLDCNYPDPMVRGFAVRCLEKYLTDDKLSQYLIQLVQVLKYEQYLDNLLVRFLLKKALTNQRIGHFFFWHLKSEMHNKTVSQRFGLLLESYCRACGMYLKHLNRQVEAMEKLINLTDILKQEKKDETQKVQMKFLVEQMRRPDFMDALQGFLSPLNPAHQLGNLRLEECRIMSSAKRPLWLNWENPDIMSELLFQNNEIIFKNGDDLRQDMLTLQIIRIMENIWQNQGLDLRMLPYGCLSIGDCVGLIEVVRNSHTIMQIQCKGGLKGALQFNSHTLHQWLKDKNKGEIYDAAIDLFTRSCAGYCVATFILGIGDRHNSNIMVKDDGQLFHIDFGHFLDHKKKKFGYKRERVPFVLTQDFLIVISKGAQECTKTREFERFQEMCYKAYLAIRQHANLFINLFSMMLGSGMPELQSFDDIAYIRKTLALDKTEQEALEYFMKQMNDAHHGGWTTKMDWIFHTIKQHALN
T2 sequence (P27986 whole entry partner): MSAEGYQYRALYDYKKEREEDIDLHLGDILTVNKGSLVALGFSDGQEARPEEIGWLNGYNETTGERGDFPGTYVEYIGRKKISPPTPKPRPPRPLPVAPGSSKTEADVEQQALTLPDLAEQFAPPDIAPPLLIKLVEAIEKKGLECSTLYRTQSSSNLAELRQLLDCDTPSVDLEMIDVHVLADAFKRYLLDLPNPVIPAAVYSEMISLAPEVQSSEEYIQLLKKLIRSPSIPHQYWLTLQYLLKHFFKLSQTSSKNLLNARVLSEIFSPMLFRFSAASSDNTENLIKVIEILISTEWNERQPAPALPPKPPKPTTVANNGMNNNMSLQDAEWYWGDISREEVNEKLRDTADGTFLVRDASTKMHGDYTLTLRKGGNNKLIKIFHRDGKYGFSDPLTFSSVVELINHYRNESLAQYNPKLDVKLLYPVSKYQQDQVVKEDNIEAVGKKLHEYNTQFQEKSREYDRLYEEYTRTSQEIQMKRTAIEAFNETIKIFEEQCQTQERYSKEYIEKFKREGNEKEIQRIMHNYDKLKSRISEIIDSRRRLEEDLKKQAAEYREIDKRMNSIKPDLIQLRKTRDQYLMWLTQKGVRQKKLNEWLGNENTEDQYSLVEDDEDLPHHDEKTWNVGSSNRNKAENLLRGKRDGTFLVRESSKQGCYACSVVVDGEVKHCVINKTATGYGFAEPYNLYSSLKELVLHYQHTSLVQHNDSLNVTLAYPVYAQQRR
T1 sequence (O00329 whole entry): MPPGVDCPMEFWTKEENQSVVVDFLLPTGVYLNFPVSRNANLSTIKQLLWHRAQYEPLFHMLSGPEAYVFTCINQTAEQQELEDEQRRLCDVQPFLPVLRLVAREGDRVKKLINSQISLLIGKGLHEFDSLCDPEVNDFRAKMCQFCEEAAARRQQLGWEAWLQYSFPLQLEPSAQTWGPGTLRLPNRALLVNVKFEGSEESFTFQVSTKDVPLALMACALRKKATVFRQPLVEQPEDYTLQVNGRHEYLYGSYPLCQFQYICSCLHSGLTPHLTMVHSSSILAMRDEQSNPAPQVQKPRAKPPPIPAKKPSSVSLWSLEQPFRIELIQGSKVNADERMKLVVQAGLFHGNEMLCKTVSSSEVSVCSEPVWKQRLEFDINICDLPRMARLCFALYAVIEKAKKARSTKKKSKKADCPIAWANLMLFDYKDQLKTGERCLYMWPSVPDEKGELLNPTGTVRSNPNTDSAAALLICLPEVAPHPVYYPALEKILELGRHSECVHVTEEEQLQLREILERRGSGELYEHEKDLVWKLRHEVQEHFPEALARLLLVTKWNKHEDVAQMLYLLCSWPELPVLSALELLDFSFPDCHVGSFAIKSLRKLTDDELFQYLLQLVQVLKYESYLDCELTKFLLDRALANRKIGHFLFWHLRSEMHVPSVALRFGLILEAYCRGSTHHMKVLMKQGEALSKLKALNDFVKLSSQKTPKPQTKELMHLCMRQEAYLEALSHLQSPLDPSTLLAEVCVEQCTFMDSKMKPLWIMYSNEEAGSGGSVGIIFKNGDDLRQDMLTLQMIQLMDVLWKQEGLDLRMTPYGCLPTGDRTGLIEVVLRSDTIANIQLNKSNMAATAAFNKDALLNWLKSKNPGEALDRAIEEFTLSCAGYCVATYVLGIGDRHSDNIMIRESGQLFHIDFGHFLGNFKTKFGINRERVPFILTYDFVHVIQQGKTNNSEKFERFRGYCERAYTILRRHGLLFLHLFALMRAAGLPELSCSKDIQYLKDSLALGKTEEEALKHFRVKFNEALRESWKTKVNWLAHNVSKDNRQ
T1 sequence (P27986 whole entry partner): as the sequence (P27986 whole entry partner) above

| SMILES | IC50 (human PI3Kδ enzyme) [nM] | IC50 (Human PI3Kα) [nM] | IC50 [1] [nM] |
| --- | --- | --- | --- |
| FC(F)c1nc2ccccc2n1-c1cc(N2CCOCC2)nc(NC[C@H]2CC[C@H](N3CCOCC3)CC2)n1 [Example 174] | 5.9 | 2400 | 2.4 |
| FC(F)c1nc2ccccc2n1-c1cc(N2CCOCC2)nc(NC[C@H]2CC[C@H](N3CCCCC3)CC2)n1 [Example 177] | 4.8 | > 3000 | 1.1 |
| FC(F)c1nc2ccccc2n1-c1cc(NC[C@H]2CC[C@H](N3CCOCC3)CC2)nc(N2CCOCC2)n1 [Example 223] | 6.2 | > 10000 | 1.5 |
| C#CCN(CC(C)(C)O)[C@H]1CC[C@H](CNc2nc(N3CCOCC3)cc(-n3c(C(F)F)nc4ccccc43)n2)CC1 [Example 430] | 2.3 | 2300 | 1.8 |
| CC#CCN(CC(C)(C)O)[C@H]1CC[C@H](CNc2nc(N3CCOCC3)cc(-n3c(C(F)F)nc4ccccc43)n2)CC1 [Example 437] | 7.1 | 2200 | 3.6 |
| CC(C)(O)CN(CC1CCC1)[C@H]1CC[C@H](CNc2nc(N3CCOCC3)cc(-n3c(C(F)F)nc4ccccc43)n2)CC1 [Example 441] | 15 | 5900 | 4.2 |
| C=CCN(CC(C)(C)O)[C@H]1CC[C@H](CNc2nc(N3CCOCC3)cc(-n3c(C(F)F)nc4ccccc43)n2)CC1 [Example 442] | 10 | 2700 | 1.2 |
| CC(C)=CCN(CC(C)(C)O)[C@H]1CC[C@H](CNc2nc(N3CCOCC3)cc(-n3c(C(F)F)nc4ccccc43)n2)CC1 [Example 449] | 14 | 1300 | 2.2 |
| CCCN(CCC)[C@H]1CC[C@H](CNc2nc(N3CCOCC3)cc(-n3c(C(F)F)nc4ccccc43)n2)CC1 [Example 450] | 14 | 3500 | 2.1 |
| FC(F)c1nc2ccccc2n1-c1cc(NC[C@H]2CC[C@H](N3CC[C@H](F)C3)CC2)nc(N2CCOCC2)n1 [Example 461] | 16 | 3800 | 1.1 |
| O=C(CN1CCCC1)N[C@H]1CC[C@H](Oc2cc(-n3c(C(F)F)nc4ccccc43)nc(N3CCOCC3)n2)CC1 [Example 473] | 30 | 9900 | 4 |
| FC[C@@H]1CCCN1[C@H]1CC[C@H](COc2cc(-n3c(C(F)F)nc4ccccc43)nc(N3CCOCC3)n2)CC1 [Example 482] | 4.6 | 3400 | 4.6 |
| FC[C@@H]1CCCN1[C@H]1CC[C@H](CNc2cc(-n3c(C(F)F)nc4ccccc43)nc(N3CCOCC3)n2)CC1 [Example 484] | 1.5 | 2600 | 2.2 |
| CC(C)(O)[C@@H]1CCCN1C1CCC(COc2cc(-n3c(C(F)F)nc4ccccc43)nc(N3CCOCC3)n2)CC1 (stereo partly shown) [Example 486] | 9.8 | 3600 | 3.6 |
| CC(C)(O)[C@@H]1CCCN1C1CCC(CNc2cc(-n3c(C(F)F)nc4ccccc43)nc(N3CCOCC3)n2)CC1 (stereo partly shown) [Example 487] | 7.9 | 4400 | 1.4 |
| CN(CC(C)(C)O)[C@H]1CC[C@H](COc2cc(-n3c(C(F)F)nc4ccccc43)nc(N3CCOCC3)n2)CC1 [Example 488] | 30 | 5600 | 2.8 |
| COCCN(C)[C@H]1CC[C@H](CNc2cc(-n3c(C(F)F)nc4ccccc43)nc(N3CCOCC3)n2)CC1 [Example 497] | 16 |  | 2.1 |

Now from value to compound, other results behind:

| IC50 (human PI3Kδ enzyme) [nM] | IC50 (Human PI3Kα) [nM] | SMILES | IC50 [1] [nM] |
| --- | --- | --- | --- |
| 5.5 | 1700 | COCCN(C1CC1)[C@H]1CC[C@H](CNc2nc(N3CCOCC3)cc(-n3c(C(F)F)nc4ccccc43)n2)CC1 [Example 246] | 2.1 |
| 2.6 | 2500 | COCCN(CC1CC1)[C@H]1CC[C@H](CNc2nc(N3CCOCC3)cc(-n3c(C(F)F)nc4ccccc43)n2)CC1 [Example 271] | 5.5 |
| 9.7 | > 3000 | CN(CCO)[C@H]1CC[C@H](CNc2nc(N3CCOCC3)cc(-n3c(C(F)F)nc4ccccc43)n2)CC1 [Example 274] | 5.5 |
| 4.9 | 2500 | COCCCN(C)[C@H]1CC[C@H](CNc2nc(N3CCOCC3)cc(-n3c(C(F)F)nc4ccccc43)n2)CC1 [Example 280] | 3.8 |
| 18 | 1400 | CCN(CCOC)[C@H]1CC[C@H](CNc2nc(N3CCOCC3)cc(-n3c(C(F)F)nc4ccccc43)n2)CC1 [Example 363] | 1.4 |
| 6.4 | 1200 | COCCN(CC(C)F)[C@H]1CC[C@H](CNc2nc(N3CCOCC3)cc(-n3c(C(F)F)nc4ccccc43)n2)CC1 (stereo partly shown) [Example 374] | 2 |
| 12 | 1600 | CN(CC(C)(C)O)[C@H]1CC[C@H](CNc2nc(N3CCOCC3)cc(-n3c(C(F)F)nc4ccccc43)n2)CC1 [Example 375] | 1.2 |
| 21 |  | CCN(CC(C)(C)O)[C@H]1CC[C@H](CNc2nc(N3CCOCC3)cc(-n3c(C(F)F)nc4ccccc43)n2)CC1 [Example 385] | 1.9 |
| 7.7 | 780 | C[C@H]1COCCN1c1cc(-n2c(C(F)F)nc3ccccc32)nc(NC[C@H]2CC[C@H](N(C)CC(C)(C)O)CC2)n1 [Example 393] | 0.7 |
| 32 | 3400 | CC(C)C(O)CN(C)[C@H]1CC[C@H](CNc2nc(N3CCOCC3)cc(-n3c(C(F)F)nc4ccccc43)n2)CC1 (stereo partly shown) [Example 398] | 2.3 |
| 22 | 3200 | COCC(C)N[C@H]1CC[C@H](CNc2nc(N3CCOCC3)cc(-n3c(C(F)F)nc4ccccc43)n2)CC1 (stereo partly shown) [Example 399] | 3.4 |
| 4.9 | 700 | CCN(CC(C)(C)O)[C@H]1CC[C@H](CNc2nc(N3CCOC[C@@H]3C)cc(-n3c(C(F)F)nc4ccccc43)n2)CC1 [Example 403] | 0.82 |
| 6 | 5800 | C#CCN[C@H]1CC[C@H](CNc2nc(N3CCOCC3)cc(-n3c(C(F)F)nc4ccccc43)n2)CC1 [Example 422] | 4.9 |
| 6 | 3600 | CCN(CC)[C@H]1CC[C@H](CNc2nc(N3CCOCC3)cc(-n3c(C(F)F)nc4ccccc43)n2)CC1 [Example 424] | 1.7 |
| 4.3 | 1900 | COCC(C)N(C)[C@H]1CC[C@H](CNc2nc(N3CCOCC3)cc(-n3c(C(F)F)nc4ccccc43)n2)CC1 (stereo partly shown) [Example 434] | 1.3 |
| 2.8 | 950 | CCN(C(C)COC)[C@H]1CC[C@H](CNc2nc(N3CCOCC3)cc(-n3c(C(F)F)nc4ccccc43)n2)CC1 (stereo partly shown) [Example 435] | 0.58 |
| 7 | 3400 | CC(N(C)[C@H]1CC[C@H](CNc2nc(N3CCOCC3)cc(-n3c(C(F)F)nc4ccccc43)n2)CC1)C(C)(C)O (stereo partly shown) [Example 445] | 0.72 |
| 8.9 | 1700 | COCC(C)N[C@H]1CC[C@H](CNc2nc(N3CCOC[C@@H]3C)cc(-n3c(C(F)F)nc4ccccc43)n2)CC1 (stereo partly shown) [Example 446] | 1.7 |
| 5.3 | 2900 | COCC(C)N(C)[C@H]1CC[C@H](CNc2nc(N3CCOC[C@@H]3C)cc(-n3c(C(F)F)nc4ccccc43)n2)CC1 (stereo partly shown) [Example 447] | 0.77 |
| 13 | 1800 | COC[C@@H]1CCCN1C1CCC(CNc2nc(N3CCOCC3)cc(-n3c(C(F)F)nc4ccccc43)n2)CC1 (stereo partly shown) [Example 456] | 1.1 |
| 8.1 | 1700 | CCN(C(C)C(C)(C)O)[C@H]1CC[C@H](CNc2nc(N3CCOCC3)cc(-n3c(C(F)F)nc4ccccc43)n2)CC1 (stereo partly shown) [Example 471] | 1.3 |
